Data as given in PubChem BioAssay AID1963828 (Molecular Pharmacology Branch, DTP, NCI, 2024).

Tested on: 991263-137-R1-J2-PDC complex spheroid viability
Assay: Anticancer human tumor 991263-137-R1-J2-PDC patient-derived colon adenocarcinoma cell line growth inhibition [POLQ]
Conditions: for IC50: curve of first compound; for viability, T/C: stronger effect = lower value
Procedure, shortened: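 Complex spheroid viability model combining PDC tumour cells with endothelial (HUVEC) and MSC stromal cells. Novobiocin, ART-558 or RP6685 were tested singly and in combination with standard and investigational anticancer drugs. Each was titrated in half-log steps from near clinical Cmax, or from 10 microM where Cmax was unknown.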

[1] = second compound 0.0316 µM, first compound 0.0316 µM
[2] = second compound 0.0316 µM, first compound 0.1 µM
[3] = second compound 0.0316 µM, first compound 0.316 µM
[4] = second compound 0.0316 µM, first compound 1 µM
[5] = second compound 0.1 µM, first compound 0.0316 µM
[6] = second compound 0.1 µM, first compound 0.1 µM
[7] = second compound 0.1 µM, first compound 0.316 µM
[8] = second compound 0.1 µM, first compound 1 µM
[9] = second compound 0.316 µM, first compound 0.0316 µM
[10] = second compound 0.316 µM, first compound 0.1 µM
[11] = second compound 0.316 µM, first compound 0.316 µM
[12] = second compound 0.316 µM, first compound 1 µM
[13] = second compound 1 µM, first compound 0.0316 µM
[14] = second compound 1 µM, first compound 0.1 µM
[15] = second compound 1 µM, first compound 0.316 µM
[16] = second compound 1 µM, first compound 1 µM
[17] = second compound 3.16 µM, first compound 0.0316 µM
[18] = second compound 3.16 µM, first compound 0.1 µM
[19] = second compound 3.16 µM, first compound 0.316 µM
[20] = second compound 3.16 µM, first compound 1 µM
[21] = second compound 10 µM, first compound 0.0316 µM
[22] = second compound 10 µM, first compound 0.1 µM
[23] = second compound 10 µM, first compound 0.316 µM
[24] = second compound 10 µM, first compound 1 µM
[25] = second compound 0.0316 µM, first compound 0.00316 µM
[26] = second compound 0.0316 µM, first compound 0.01 µM
[27] = second compound 0.1 µM, first compound 0.00316 µM
[28] = second compound 0.1 µM, first compound 0.01 µM
[29] = second compound 0.316 µM, first compound 0.00316 µM
[30] = second compound 0.316 µM, first compound 0.01 µM
[31] = second compound 1 µM, first compound 0.00316 µM
[32] = second compound 1 µM, first compound 0.01 µM
[33] = second compound 3.16 µM, first compound 0.00316 µM
[34] = second compound 3.16 µM, first compound 0.01 µM
[35] = second compound 10 µM, first compound 0.00316 µM
[36] = second compound 10 µM, first compound 0.01 µM
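Note: spheroids exposed to compounds for 7 days before readout.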
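Throughout, for viability, T/C: 100% = DMSO vehicle control viability.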

CNCc1ccc(-c2[nH]c3cc(F)cc4c3c2CCNC4=O)cc1 + COC1C(OC(N)=O)C(O)C(Oc2ccc3c(O)c(NC(=O)c4ccc(O)c(CC=C(C)C)c4)c(=O)oc3c2C)OC1(C)C
IC50 (second compound 0.0316 µM): > 10000 nM | IC50 (second compound 0.1 µM): > 10000 nM | IC50 (second compound 0.316 µM): > 10000 nM | IC50 (second compound 1 µM): > 10000 nM | IC50 (second compound 3.16 µM): > 10000 nM | IC50 (second compound 10 µM): > 10000 nM | viability, T/C [1]: 85.7% | viability, T/C [2]: 101% | viability, T/C [3]: 94% | viability, T/C [4]: 97.1% | viability, T/C (second compound 0.0316 µM, first compound 3.16 µM): 121% | viability, T/C (second compound 0.0316 µM, first compound 10 µM): 103% | viability, T/C [5]: 106% | viability, T/C [6]: 104% | viability, T/C [7]: 109% | viability, T/C [8]: 98.5% | viability, T/C (second compound 0.1 µM, first compound 3.16 µM): 101% | viability, T/C (second compound 0.1 µM, first compound 10 µM): 95.9% | viability, T/C [9]: 105% | viability, T/C [10]: 91.6% | viability, T/C [11]: 106% | viability, T/C [12]: 100% | viability, T/C (second compound 0.316 µM, first compound 3.16 µM): 99.6% | viability, T/C (second compound 0.316 µM, first compound 10 µM): 98.5% | viability, T/C [13]: 82.1% | viability, T/C [14]: 111% | viability, T/C [15]: 117% | viability, T/C [16]: 104% | viability, T/C (second compound 1 µM, first compound 3.16 µM): 110% | viability, T/C (second compound 1 µM, first compound 10 µM): 97.3% | viability, T/C [17]: 92.2% | viability, T/C [18]: 112% | viability, T/C [19]: 111% | viability, T/C [20]: 106% | viability, T/C (second compound 3.16 µM, first compound 3.16 µM): 119% | viability, T/C (second compound 3.16 µM, first compound 10 µM): 102% | viability, T/C [21]: 107% | viability, T/C [22]: 110% | viability, T/C [23]: 105% | viability, T/C [24]: 102% | viability, T/C (second compound 10 µM, first compound 3.16 µM): 119% | viability, T/C (second compound 10 µM, first compound 10 µM): 106%

COc1cccc(OCCCN)c1-c1cc(Nc2cnc(C#N)cn2)n[nH]1 + COC1C(OC(N)=O)C(O)C(Oc2ccc3c(O)c(NC(=O)c4ccc(O)c(CC=C(C)C)c4)c(=O)oc3c2C)OC1(C)C
IC50 (second compound 0.0316 µM): 276 nM | IC50 (second compound 0.1 µM): 421 nM | IC50 (second compound 0.316 µM): 338 nM | IC50 (second compound 1 µM): 459 nM | IC50 (second compound 3.16 µM): 491 nM | IC50 (second compound 10 µM): 513 nM | viability, T/C [25]: 111% | viability, T/C [26]: 109% | viability, T/C [1]: 84.4% | viability, T/C [2]: 63.6% | viability, T/C [3]: 52.1% | viability, T/C [4]: 35.6% | viability, T/C [27]: 97.3% | viability, T/C [28]: 89.4% | viability, T/C [5]: 92.9% | viability, T/C [6]: 69.2% | viability, T/C [7]: 59.6% | viability, T/C [8]: 28.7% | viability, T/C [29]: 99.3% | viability, T/C [30]: 104% | viability, T/C [9]: 102% | viability, T/C [10]: 77.8% | viability, T/C [11]: 53.2% | viability, T/C [12]: 29.6% | viability, T/C [31]: 111% | viability, T/C [32]: 80% | viability, T/C [13]: 80.6% | viability, T/C [14]: 75.8% | viability, T/C [15]: 61.4% | viability, T/C [16]: 33.7% | viability, T/C [33]: 109% | viability, T/C [34]: 74.2% | viability, T/C [17]: 91.9% | viability, T/C [18]: 87.5% | viability, T/C [19]: 59.3% | viability, T/C [20]: 34.8% | viability, T/C [35]: 75.8% | viability, T/C [36]: 95.2% | viability, T/C [21]: 90% | viability, T/C [22]: 76.9% | viability, T/C [23]: 59.3% | viability, T/C [24]: 37.9%

Cn1ncnc1[C@H]1c2n[nH]c(=O)c3cc(F)cc(c23)N[C@@H]1c1ccc(F)cc1 + COC1C(OC(N)=O)C(O)C(Oc2ccc3c(O)c(NC(=O)c4ccc(O)c(CC=C(C)C)c4)c(=O)oc3c2C)OC1(C)C
IC50 (second compound 0.0316 µM): > 100 nM | IC50 (second compound 0.1 µM): > 100 nM | IC50 (second compound 0.316 µM): > 100 nM | IC50 (second compound 1 µM): > 100 nM | IC50 (second compound 3.16 µM): > 100 nM | IC50 (second compound 10 µM): > 100 nM | viability, T/C (second compound 0.0316 µM, first compound 0.000316 µM): 122% | viability, T/C (second compound 0.0316 µM, first compound 0.001 µM): 107% | viability, T/C [25]: 104% | viability, T/C [26]: 85.5% | viability, T/C [1]: 79.3% | viability, T/C [2]: 107% | viability, T/C (second compound 0.1 µM, first compound 0.000316 µM): 99.8% | viability, T/C (second compound 0.1 µM, first compound 0.001 µM): 117% | viability, T/C [27]: 97.7% | viability, T/C [28]: 83.8% | viability, T/C [5]: 105% | viability, T/C [6]: 102% | viability, T/C (second compound 0.316 µM, first compound 0.000316 µM): 95% | viability, T/C (second compound 0.316 µM, first compound 0.001 µM): 122% | viability, T/C [29]: 75.4% | viability, T/C [30]: 108% | viability, T/C [9]: 109% | viability, T/C [10]: 110% | viability, T/C (second compound 1 µM, first compound 0.000316 µM): 98.1% | viability, T/C (second compound 1 µM, first compound 0.001 µM): 117% | viability, T/C [31]: 94.2% | viability, T/C [32]: 106% | viability, T/C [13]: 71.5% | viability, T/C [14]: 109% | viability, T/C (second compound 3.16 µM, first compound 0.000316 µM): 95.9% | viability, T/C (second compound 3.16 µM, first compound 0.001 µM): 109% | viability, T/C [33]: 92.1% | viability, T/C [34]: 102% | viability, T/C [17]: 109% | viability, T/C [18]: 110% | viability, T/C (second compound 10 µM, first compound 0.000316 µM): 95.7% | viability, T/C (second compound 10 µM, first compound 0.001 µM): 110% | viability, T/C [35]: 121% | viability, T/C [36]: 98% | viability, T/C [21]: 113% | viability, T/C [22]: 95.8%
